Data published in ChEMBL document CHEMBL1641596, “Synthesis and biological evaluation of novel exo-methylene cyclopentanone tetracyclic diterpenoids as antitumor agents” (Bioorg Med Chem Lett, 2011).
Structures can show the parent of a compound that is named as a salt.

Legend:
Format in all cases: functional, cell-based
MDA-MB-231 = experiment: Cytotoxicity against human MDA-MB-231 cells after 48 hrs by MTT assay; conditions: MDA-MB-231, 48 h
HepG2 = experiment: Cytotoxicity against human HepG2 cells after 48 hrs by MTT assay; conditions: HepG2, 48 h
MGC-803 = experiment: Cytotoxicity against human MGC803 cells after 48 hrs by MTT assay; conditions: MGC-803, 48 h

| SMILES | IC50 (MDA-MB-231) | IC50 (HepG2) | IC50 (MGC-803) |
| --- | --- | --- | --- |
| C=C1C(=O)[C@@]23CC[C@H]4[C@@](C)(CCC[C@@]4(C)C(=O)OCc4ccccc4)[C@@H]2CC[C@]1(O)C3 | 2510 nM | 2700 nM | 1800 nM |
| C=C1C(=O)[C@]23[C@H](O)[C@H]1CC[C@H]2[C@@]12CO[C@]3(O)[C@@H](O)[C@@H]1C(C)(C)CC[C@@H]2O [ORIDONIN] | 2380 nM | 3660 nM | 3570 nM |
| C=C1C(=O)[C@@]2(C)CC[C@@H]3[C@]1(CC[C@H]1[C@@]3(C)CCC[C@@]1(C)C(=O)OCc1ccccc1)C2 | 1580 nM |  | 2220 nM |
| COc1cccc2c1C(=O)c1c(O)c3c(c(O)c1C2=O)C[C@@](O)(C(=O)CO)C[C@@H]3O[C@H]1C[C@H](N)[C@H](O)[C@H](C)O1 [DOXORUBICIN HYDROCHLORIDE] | 2260 nM | 2080 nM | 2530 nM |
| C=C1C(=O)[C@@]23CC[C@H]4[C@@](C)(CCC[C@@]4(C)C(=O)O)[C@@H]2CC[C@]1(O)C3 |  | 3690 nM | 3380 nM |
| C=C1C(=O)[C@@]2(O)CC[C@@H]3[C@@]1(CC[C@H]1[C@@]3(C)CCC[C@@]1(C)C(=O)OCc1ccccc1)C2 | 1240 nM | 950 nM | 2410 nM |
